According to patent US20240391931A1 (Bristol-Myers Squibb Company, priority 2021, published 2024):

Target: HER2YVMA (Homo sapiens, UniProt P04626, INS775YVMA)
Assay: HER2 signaling (pHER2) in Hek293-HER2YVMA cells
Assay type: cell-based
Parameters: expressed in transfected cells; host or cells: HEK293 (pool), Ba/F3 (clones), BEAS2B (clones); lentiviral vector pCDH-CMV-MCS-EF1-Neo
Conditions: 1.5 hr compound, 1% FBS, read-out: HEKYVMA pHER2 EC50
Experimental: Cell culture, plasmid cloning, and lentiviral transduction were carried out according to standard procedures. The Human HER2 cDNA construct in pCMV6-Entry for the HER2 wildtype (WT) expression was obtained from Origene. The HER2 cDNA including the 12-nucleotide insertion corresponding to YVMA insertion (HER2YVMA) was codon optimized, synthesized and cloned by GenScript (Piscataway, NJ) in pcDNA3.1. The lentiviral constructs expressing HER2YVMA and HER2 WT were sub-cloned using PCR at System Biosciences (SBI, Mountainview, CA) into lentiviral vectors pCDH-CMV-MCS-EF1-Neo and lentiviral particles were generated.
Engineered lines expressing HER2YVMA and HER2 WT were prepared in HEK293 (human embryonic kidney cells), Ba/F3 (Interleukin 3 (IL3)-dependent murine pro B cell line), and BEAS2B (primary immortalized human bronchial epithelial cell line). Ba/F3, BEAS2B, and HEK293 cells were obtained from the American Type Culture Collection (ATCC, Manassas, VA). Parental Ba/F3 cells were grown in suspension in complete RPMI 1640 supplemented with 10% FBS and 1% P/S and 10 ng/ml interleukin 3 (IL3, Sigma-Aldrich). Hek293 and BEAS2B cells were grown as monolayers in DMEM supplemented with 10% FBS and 1% P/S. All cells were maintained and propagated in a humidified 5% CO2 incubator at 37° C.
To generate Ba/F3, BEAS2B, and Hek-293 cells engineered with lentivirus to express HER2 WT or HER2YVMA, the cells were transduced with lentiviruses at multiplicity of infection (MOI) of 1 or 10; transduced cells were selected and maintained with G418 ([…]) (Geneticin, Life Technologies, Carlsbad, CA). Ba/F3 engineered cells were subjected to gradual withdrawal of interleukin 3 (IL-3, Sigma-Aldrich). After selection, IL3 independent Ba/F3 HER2YVMA, and BEAS2B HER2YVMA cells were cloned by limiting dilution. Hek293 HER2YVMA cells were used as pool. HER2 and phospho HER2 levels were confirmed by flow cytometery and immunoassay (MSD, Meso-Scale Discovery, Rockville, Maryland).
HER2 signaling was assessed in BT474 and N87 cell lines which endogenously overexpress the HER2 wildtype (WT) protein, in NCI-H1781 cells which endogenously expresses a HER2 mutant protein containing a VC insertion in the kinase domain (HER2VC or G776delinsVC), and in engineered cell lines transduced to express the Her2 mutant protein containing the YVMA insertion (Hek293-HER2YVMA and BEAS2B-HER2YVMA).
BT474, N87, and NCI-H1781 were plated in 96-well tissue-culture treated plates (Corning Costar, Sigma-Aldrich) in full media and incubated overnight. Hek293-HER2YVMA and BEAS2B-HER2YVMA cells were plated in 96-well poly-D-lysine treated plates (BD Bioscience, San Jose, CA). For treatment with test compounds, the media was replaced with corresponding low serum media (1% FBS) containing test compound at 1.1, 0.37, 0.12, 0.041, 0.014, 0.005, 0.0014, 0.0005 μM or DMSO control (0.1%). Cells were incubated with compound for 1.5 hr at 37° C. After compound treatment, the media was removed and cells were lysed for 30 min on ice in complete MSD lysis buffer (prepared using MSD base lysis buffer (Meso-Scale Discovery) supplemented with cOmplete, EDTA-free Protease inhibitor cocktail (Roche), Phosphatase Inhibitor Cocktails 2 and 3 (Sigma-Aldrich), and 1 mM PMSF (Sigma-Aldrich)). Lysates were stored at −70° C. until further analysis.
HER2 signaling was evaluated using phospho (Tyr1248)/total ErbB2 whole cell lysate MSD plates (Meso-Scale Discovery, Gaithersburg, MD). The phospho HER2 signal was normalized to total HER2 for each sample; results are reported as % DMSO control. The normalized data was fitted using a sigmoidal curve analysis program (Graph Pad Prism version 6) with variable Hill slope to determine EC50 values.
The HER2 signaling results are provided in Table 4, under columns titled “BT474-pHER2 EC50”, “N87-pHER2 EC50”, and “NCI-H1781-pHER2 EC50”. […]

Chain of HER2YVMA (P04626 with tags, fused parts or gaps INS775YVMA): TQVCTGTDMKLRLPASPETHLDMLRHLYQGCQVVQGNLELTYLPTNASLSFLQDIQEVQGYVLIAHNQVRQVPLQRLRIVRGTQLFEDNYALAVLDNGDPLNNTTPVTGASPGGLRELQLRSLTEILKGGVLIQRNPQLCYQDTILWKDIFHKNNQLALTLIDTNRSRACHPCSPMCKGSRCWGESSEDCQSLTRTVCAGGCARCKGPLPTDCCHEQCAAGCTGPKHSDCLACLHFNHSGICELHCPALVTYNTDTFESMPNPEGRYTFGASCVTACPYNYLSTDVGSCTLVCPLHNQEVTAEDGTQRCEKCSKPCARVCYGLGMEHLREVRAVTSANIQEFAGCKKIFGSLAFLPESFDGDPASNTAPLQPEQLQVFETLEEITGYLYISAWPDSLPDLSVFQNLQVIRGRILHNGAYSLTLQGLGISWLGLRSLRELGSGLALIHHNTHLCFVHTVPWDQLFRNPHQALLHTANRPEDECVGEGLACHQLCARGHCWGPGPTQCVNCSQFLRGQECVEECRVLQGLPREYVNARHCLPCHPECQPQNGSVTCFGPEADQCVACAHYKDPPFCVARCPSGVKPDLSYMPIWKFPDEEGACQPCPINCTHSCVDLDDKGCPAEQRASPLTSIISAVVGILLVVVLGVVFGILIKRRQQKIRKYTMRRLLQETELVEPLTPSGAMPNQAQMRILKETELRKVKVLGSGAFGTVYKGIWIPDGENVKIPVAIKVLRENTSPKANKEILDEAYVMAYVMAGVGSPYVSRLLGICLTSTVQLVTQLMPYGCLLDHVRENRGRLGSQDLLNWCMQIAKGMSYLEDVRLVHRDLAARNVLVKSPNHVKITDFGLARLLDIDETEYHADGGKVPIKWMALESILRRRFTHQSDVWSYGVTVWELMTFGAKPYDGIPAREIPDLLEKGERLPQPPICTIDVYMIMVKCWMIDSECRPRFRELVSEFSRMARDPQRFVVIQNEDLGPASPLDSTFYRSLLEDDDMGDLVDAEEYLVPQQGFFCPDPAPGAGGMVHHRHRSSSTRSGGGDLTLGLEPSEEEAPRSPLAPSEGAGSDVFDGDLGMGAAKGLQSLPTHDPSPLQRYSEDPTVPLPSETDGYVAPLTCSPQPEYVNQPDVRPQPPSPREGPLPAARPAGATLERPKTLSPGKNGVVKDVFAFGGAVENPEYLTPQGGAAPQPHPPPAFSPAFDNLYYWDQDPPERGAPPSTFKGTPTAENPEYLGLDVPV

SMILES | EC50
Cc1cc(Nc2ncnc3sc4c(c23)CCN(C(=O)/C=C/CN(C)C)C4)ccc1Oc1ccn2ncnc2c1 [Compound 138, (E)-1-(4-((4-([1,2,4]triazolo[1,5-a]pyridin-7-yloxy)-3-methylphenyl)amino)-5,8-dihydropyrido[4′,3′:4,5]thieno[2,3-d]pyrimidin-7(6H)-yl)-4-(dimethylamino)but-2-en-1-one] | < 100 nM
C#CCOCCN(C)C/C=C/C(=O)N1CCc2c(sc3ncnc(Nc4ccc(Oc5ccc(C)nc5)c(C)c4)c23)C1 [Compound 139] | < 100 nM
COc1ccc(Oc2ccc(Nc3ncnc4sc5c(c34)CCN(C(=O)/C=C/CN3CC[C@H](CO)C3)C5)cc2C)cn1 [Compound 140] | < 100 nM
Cc1ccc(Oc2ccc(Nc3ncnc4sc5c(c34)C(C)N(C(=O)/C=C/CN(C)C)C5)cc2C)cn1 (centres unmarked) [Compound 141, (E)-4-(dimethylamino)-1-(5-methyl-4-((3-methyl-4-((6-methylpyridin-3-yl)oxy)phenyl)amino)-5,7-dihydro-6H-pyrrolo[3′,4′:4,5]thieno[2,3-d]pyrimidin-6-yl)but-2-en-1-one] | < 100 nM
C=CC(=O)N1Cc2sc3ncnc(Nc4ccc(Oc5ccc(C)nc5)c(C)c4)c3c2C(C)C1 (centres unmarked) [Compound 142, 1-(5-methyl-4-((3-methyl-4-((6-methylpyridin-3-yl)oxy)phenyl)amino)-5,6-dihydropyrido[4′,3′:4,5]thieno[2,3-d]pyrimidin-7(8H)-yl)prop-2-en-1-one] | < 100 nM
COc1ccc(Oc2ccc(Nc3ncnc4sc5c(c34)CCN(C(=O)/C=C/CN3CC[C@@H](CO)C3)C5)cc2C)cn1 [Compound 143] | < 100 nM
Cc1ccc(Oc2ccc(Nc3ncnc4sc5c(c34)CCN(C(=O)/C=C/CN3CCO[C@@H](CO)C3)C5)cc2C)cn1 [Compound 144] | 100 to 350 nM
Cc1ccc(Oc2ccc(Nc3ncnc4sc5c(c34)CCN(C(=O)/C=C/CN3CCCC(F)(CO)C3)C5)cc2C)cn1 (centres unmarked) [Compound 150] | < 100 nM
Cc1ccc(Oc2ccc(Nc3ncnc4sc5c(c34)CCN(C(=O)/C=C/CN3CC(F)(CO)C3)C5)cc2C)cn1 [Compound 151] | 100 to 350 nM
COc1ccc(Oc2ccc(Nc3ncnc4sc5c(c34)C(C)CN(C(=O)/C=C/CN(C)C)C5)cc2C)cn1 (centres unmarked) [Compound 152, (E)-4-(dimethylamino)-1-(4-((4-((6-methoxypyridin-3-yl)oxy)-3-methylphenyl)amino)-5-methyl-5,8-dihydropyrido[4′,3′:4,5]thieno[2,3-d]pyrimidin-7(6H)-yl)but-2-en-1-one] | < 100 nM
Cc1ccc(Oc2ccc(Nc3ncnc4sc5c(c34)CN(C(=O)/C=C/CN(C)C)C5C)cc2C)cn1 (centres unmarked) [Compound 153, (E)-4-(dimethylamino)-1-(7-methyl-4-((3-methyl-4-((6-methylpyridin-3-yl)oxy)phenyl)amino)-5,7-dihydro-6H-pyrrolo[3′,4′:4,5]thieno[2,3-d]pyrimidin-6-yl)but-2-en-1-one] | < 100 nM
Cc1ccc(Oc2ccc(Nc3ncnc4sc5c(c34)CCN(C(=O)/C=C/CN3CCC[C@@H](CO)C3)C5)cc2C)cn1 [Compound 154] | < 100 nM
Cc1ccc(Oc2ccc(Nc3ncnc4sc5c(c34)CCN(C(=O)/C=C/CN3CCC[C@H](CO)C3)C5)cc2C)cn1 [Compound 155] | < 100 nM
Cc1cc(Nc2ncnc3sc4c(c23)CCN(C(=O)/C=C/CN(C)C)C4)ccc1Oc1ccc(N(C)C)nc1 [Compound 158, (E)-4-(dimethylamino)-1-(4-((4-((6-(dimethylamino)pyridin-3-yl)oxy)-3-methylphenyl)amino)-5,8-dihydropyrido[4′,3′:4,5]thieno[2,3-d]pyrimidin-7(6H)-yl)but-2-en-1-one] | < 100 nM
COc1ccc(Oc2ccc(Nc3ncnc4sc5c(c34)CCN(C(=O)/C=C/CN(C)C(C)(C)C)C5)cc2C)cn1 [Compound 163] | < 100 nM
COc1ccc(Oc2ccc(Nc3ncnc4sc5c(c34)CCN(C(=O)/C=C/CN3CCOCC3)C5)cc2C)cn1 [Compound 164] | < 100 nM
Cc1ccc(Oc2ccc(Nc3ncnc4sc5c(c34)CCN(C(=O)/C=C/CN(C)C)CC5)cc2Cl)cn1 [Compound 167, (E)-1-(4-((3-Chloro-4-((6-methylpyridin-3-yl)oxy)phenyl)amino)-8,9-dihydro-5H-pyrimido[5′,4′:4,5]thieno[2,3-d]azepin-7(6H)-yl)-4-(dimethylamino)but-2-en-1-one] | 100 to 350 nM
Cc1cc(Nc2ncnc3sc4c(c23)CCN(C(=O)/C=C/CN(C)C)CC4)ccc1Oc1ccn2ncnc2c1 [Compound 168] | 100 to 350 nM
Cc1ccc(Oc2ccc(Nc3ncnc4sc5c(c34)C(C)CN(C(=O)/C=C/CN(C)C)C5)cc2Cl)cn1 (centres unmarked) [Compound 171, (E)-1-(4-((3-Chloro-4-((6-methylpyridin-3-yl)oxy)phenyl)amino)-5-methyl-5,6-dihydropyrido[4′,3′:4,5]thieno[2,3-d]pyrimidin-7(8H)-yl)-4-(dimethylamino)but-2-en-1-one] | < 100 nM
Cc1cc(Nc2ncnc3sc4c(c23)CCN(C(=O)/C=C/CN(C)C)CC4)ccc1Oc1ccn2ccnc2c1 [Compound 172, (E)-4-(Dimethylamino)-1-(4-((4-(imidazo[1,2-a]pyridin-7-yloxy)-3-methylphenyl)amino)-8,9-dihydro-5H-pyrimido[5′,4′:4,5]thieno[2,3-d]azepin-7(6H)-yl)but-2-en-1-one] | 100 to 350 nM
COc1ccc(Oc2ccc(Nc3ncnc4sc5c(c34)CCN(C(=O)/C=C/CN(C)C)CC5)cc2C)cn1 [Compound 173, (E)-4-(Dimethylamino)-1-(4-((4-((6-methoxypyridin-3-yl)oxy)-3-methylphenyl)amino)-8,9-dihydro-5H-pyrimido[5′,4′:4,5]thieno[2,3-d]azepin-7(6H)-yl)but-2-en-1-one] | 100 to 350 nM
Cc1ccc(Oc2ccc(Nc3ncnc4sc5c(c34)C(C)CN(C(=O)/C=C/CN3CCOCC3)C5)cc2C)cn1 (centres unmarked) [Compound 174, (E)-1-(5-Methyl-4-((3-methyl-4-((6-methylpyridin-3-yl)oxy)phenyl)amino)-5,6-dihydropyrido[4′,3′:4,5]thieno[2,3-d]pyrimidin-7(8H)-yl)-4-morpholinobut-2-en-1-one] | < 100 nM
Cc1ccc(Oc2ccc(Nc3ncnc4sc5c(c34)C(C)CN(C(=O)/C=C/CN(C)C(C)(C)C)C5)cc2C)cn1 (centres unmarked) [Compound 175] | < 100 nM
